Inhibition data for four compounds are collected here from patent US8809233B2, “Ternary herbicidal compositions comprising aminopyralid and imazamox” (BASF SE, priority 2008, dated 2014).

Holding throughout (assay type): in vivo
The subject of one test is Thlaspi arvense (THLAR). The experiment in a line: greenhouse post-emergence herbicidal activity on THLAR. The protocol: (§1) The test plants have been seeded, separately for each species, in plastic containers in sandy loamy soil containing 5% of organic matter.
(§2) For the post emergence treatment, the plants were first grown to the 2 leaf station (GS 12). Here, the herbicidal compositions were suspended or emulsified in water as distribution medium and sprayed using finely distributing nozzels.
(§3) The plants have been cultivated due to there individual requirements at 10-25° C. and 20-35° C. The plants were irrigated due to there necessity.
(§4) The respective herbicides A and/or safener were formulated as 10% by weight strength suspension concentrate and introduced to the spray liquor with the amount of solvent system used for applying the active compound. Herbicide B and/or safener were used as commercially available formulations and introduced to the spray liquor with the amount of solvent system used for applying the active compound. In the examples, the solvent used was water.
(§5) In the following experiments, the herbicidal activity for the individual herbicide compounds (solo and mixture applications), the herbicidal succession was assessed 14 days after treatment (DAT).
(§6) The evaluation for the damage on undesired weeds caused by the chemical compositions was carried out using a scale from 0 to 100%, compared to the untreated control plants. Here, 0 means no damage and 100 means complete destruction of the plants.
(§7) The value E, which is to be expected if the activity of the individual compounds is just additive, was calculated using the method of S. R. Colby (1967) “Calculating synergistic and antagonistic responses of herbicide combinations”, weeds 15, p. 22ff.
(§8) [formula] where: X=effect in percent using herbicide A at an application rate a; Y=effect in percent using herbicide B at an application rate b; Z=effect in percent using herbicide C at an application rate c; E=expected effect (in %) of A+B+C at application rates a+b+c
(§9) Tables 1 to 2 relate to the herbicidal activity, in greenhouse trials, of the individual actives and the combination in post-emergence application 14 DAT.

For the next test, the system named is Viola arvensis (VIOAR). The experiment in a line: greenhouse post-emergence herbicidal activity on VIOAR. The protocol: as §1, §2, §3, §4, §5, §6, §7, §8, §9
Test [1] concerns Mercurialis annua (MERAN). The experiment in a line: greenhouse post-emergence herbicidal activity on MERAN. On the procedure:
as §1, §2, §3, §4, §5, §6, §7, §8, §9

Test [2] deals with Matricaria inodora (MATIN). The experiment in a line: greenhouse post-emergence herbicidal activity on MATIN. Conditions: Tripleurospermum inodorum. On the procedure: as §1, §2, §3, §4, §5, §6, §7, §8, §9
Test [3] deals with Matricaria chamomilla (MATCH). The experiment in a line: greenhouse post-emergence herbicidal activity on MATCH. The settings on record: 672 h, read-out: % activity 28 DAT. The protocol: as §1, §2, §3
The respective herbicides A and/or safener were formulated as 10% by weight strength suspension concentrate and introduced to the spray liquor with the amount of solvent system used for applying the active compound. Herbicide B and/or safener were used as commercially available formulations and introduced to the spray liquor with the amount of solvent system used for applying the active compound. In the examples, the solvent used was water. […]
The evaluation for the damage on undesired weeds caused by the chemical compositions was carried out using a scale from 0 to 100%, compared to the untreated control plants. […]
The value E, which is to be expected if the activity of the individual compounds is just additive, was calculated using the method of S. R. Colby (1967) “Calculating synergistic and antagonistic responses of herbicide combinations”, weeds 15, p. […]

The test system of another test is Papaver rhoeas (PAPRH). The experiment in a line: greenhouse post-emergence herbicidal activity on PAPRH. On the procedure: as §1, §2, §3, §4, §5, §6, §7, §8, §9
In test [4] the test system is Capsella bursa-pasturis (CAPBP). The experiment in a line: greenhouse post-emergence herbicidal activity on CAPBP. The protocol: as §1, §2, §3, §4, §5, §6, §7, §8, §9

Structures are written as SMILES. Like-named read-outs stand apart in the source and are kept apart here.

On to `Nc1cc(Cl)nc(C(=O)O)c1Cl` [aminopyralid, 4-amino-3,6-dichloropyridine-2-carboxylic acid], for which the inhibition at 2.5 g/ha in the test on Thlaspi arvense (THLAR) (read-out: % activity) was determined as 30%; in the test with Viola arvensis (VIOAR) (read-out: % activity), 10%; in test [1] (read-out: % activity), 70%; in test [2] (read-out: % activity), 35%; in test [3], 40%; with Papaver rhoeas (PAPRH) (read-out: % activity), 0%. For the same compound, in test [4] (read-out: % activity), the inhibition at 2.5 g/ha is 0%. The inhibition at 5 g/ha in the test on Viola arvensis (VIOAR) (read-out: % activity) is 10%; in test [2] (read-out: % activity), 60%; in test [3], 75%; with Papaver rhoeas (PAPRH) (read-out: % activity) it was 15%; in test [4] (read-out: % activity), 10%. Also, in test [4] (read-out: % activity), the inhibition at 10 g/ha turned out to be 25%.
Regarding `O=C(O)c1nc(Cl)ccc1Cl` [clopyralid], the inhibition at 30 g/ha in test [4] (Table 2, CAPBP, solo application, use rate 30 g ai/ha) came out at 0%. Moreover, in test [4] (Table 2, CAPBP, solo application, use rate 120 g ai/ha), the inhibition at 120 g/ha amounted to 10%.
As to `COCc1cnc(C2=NC(C)(C(C)C)C(=O)N2)c(C(=O)O)c1` (racemic) [imazamox, 2-[(RS)-4-isopropyl-4-methyl-5-oxo-2-imidazolin-2-yl]-5-methoxymethylnicotinic acid], the inhibition at 20 g/ha in the test on Thlaspi arvense (THLAR) (THLAR, solo application, use rate 20 g ai/ha) amounted to 90%; with Viola arvensis (VIOAR) (VIOAR, solo application, use rate 20 g ai/ha), 0%; in test [1] (MERAN, solo application, use rate 20 g ai/ha), 90%; in test [2] (MATIN, solo application, use rate 20 g ai/ha) it was 65%; in the test with Papaver rhoeas (PAPRH) (PAPRH, solo application, use rate 20 g ai/ha), 35%; in test [4] (CAPBP, solo application, use rate 20 g ai/ha) it was 90%. In addition, the inhibition at 10 g/ha in test [4] (Table 2, CAPBP, solo application, use rate 10 g ai/ha (imazamox), read-out: % activity) is 80%.
With `Cc1cccc(C)c1N(Cn1cccn1)C(=O)CCl` [metazachlor], the inhibition at 187 g/ha with Thlaspi arvense (THLAR) (THLAR, solo application, use rate 187 g ai/ha) worked out at 0%; with Viola arvensis (VIOAR) (VIOAR, solo application, use rate 187 g ai/ha), 15%; in test [1] (MERAN, solo application, use rate 187 g ai/ha), 15%; in test [2] (MATIN, solo application, use rate 187 g ai/ha) it was 60%; with Papaver rhoeas (PAPRH) (PAPRH, solo application, use rate 187 g ai/ha), 30%; in test [4] (CAPBP, solo application, use rate 187 g ai/ha), 0%.
